{
  "source": "patent US9226498B2",
  "key": {"tame oats (AVESA) [1]": {"test_system": "tame oats (AVESA)", "test": "Trial III field trial, postemergence crop injury", "type": "in vivo, Avena sativa"}, "tame oats (AVESA) [2]": {"test_system": "tame oats (AVESA)", "test": "Trial IV field trial, postemergence crop injury", "type": "in vivo, Avena sativa"}, "spring barley (HORVS) [3]": {"test_system": "spring barley (HORVS)", "test": "Trial IV cont. field trial, postemergence crop injury", "type": "in vivo, Hordeum vulgare L"}, "spring barley (HORVS) [4]": {"test_system": "spring barley (HORVS)", "test": "Trial V field trial, postemergence crop injury", "type": "in vivo, Hordeum vulgare L"}, "spring wheat (TRZAS) [5]": {"test_system": "spring wheat (TRZAS)", "settings": "Trial I", "from_the_text": "(§1) Five small plot field trials were established across various ecozones to evaluate the crop safety of florasulam and 4-amino-3-chloro-6-(4-chloro-2-fluoro-3-methoxy-phenyl)pyridine-2-carboxylic acid TEA (triethylamine) salt or of florasulam and 4-amino-3-chloro-6-(4-chloro-2-fluoro-3-methoxyphenyl)pyridine-2-carboxylic acid methyl ester, when applied alone or in combination, on spring cereals including spring wheat, spring barley and tame oats.\n(§2) In Trials III, IV, and V the methyl ester of the compound of formula (I) was applied alone at rates of 5-10 g ae/ha using a formulation containing 200 grams acid equivalent per kilogram (g ae/kg) of the methyl ester with 0.5% v/v Turbocharge adjuvant. […] All herbicide treatments were applied post-emergence in the spring to early summer Herbicides were applied with bicycle- or tractor-mounted sprayers using carbon dioxide (CO2) as a propellant. The sprayers delivered a uniform spray pattern that provided thorough coverage of the foliage using a 100 liter per hectare (L/ha) spray volume. At the time of herbicide applications, spring barley, spring wheat and tame oats were at the two leaf stage to the seven leaf, three tiller stage. Phytotoxicity to cereal crops was visually assessed as percent overall injury, compared to an untreated control plot. The overall injury assessments were based on visual ratings of growth inhibition, chlorosis, and delay in maturity. At late ratings, percent visual seed head deformity was also assessed. Trials were designed as randomized complete blocks with four replicates. In general, three to four replicates were assessed for each treatment.\n(§3) Colby's equation is: Expected=A+B−(A×B/100) • A=observed efficacy of active ingredient A at the same concentration as used in the mixture; • B=observed efficacy of active ingredient B at the same concentration as used in the mixture."}, "spring wheat (TRZAS) [6]": {"test_system": "spring wheat (TRZAS)", "settings": "Trial II", "from_the_text": "as §1, §2, §3"}},
  "note": "Read-outs that look alike come from different tables or passages of the source.",
  "data": [
    {"smiles": "COC(=O)c1nc(-c2ccc(Cl)c(OC)c2F)cc(N)c1Cl", "note": "[Compound II]", "values": [
      {"measurement": "Percent (%) Visual Head Deformity 70 DAT Obs", "setting": "tame oats (AVESA) [1]; Compound II 5 g ae/ha alone", "value": 7.5, "unit": "cd %"},
      {"measurement": "Percent (%) Visual Injury 7 DAT Obs", "setting": "tame oats (AVESA) [1]; Compound II 5 g ae/ha alone", "value": 0.0, "unit": "d %"},
      {"measurement": "Percent (%) Visual Injury 16 DAT Obs", "setting": "tame oats (AVESA) [1]; Compound II 5 g ae/ha alone", "value": 2.5, "unit": "de %"},
      {"measurement": "Percent (%) Visual Injury 31 DAT Obs", "setting": "tame oats (AVESA) [1]; Compound II 5 g ae/ha alone", "value": 5.0, "unit": "fg %"},
      {"measurement": "Percent (%) Visual Injury 70 DAT Obs", "setting": "tame oats (AVESA) [1]; Compound II 5 g ae/ha alone", "value": 15.8, "unit": "def %"},
      {"measurement": "Percent (%) Visual Head Deformity 70 DAT Obs", "setting": "tame oats (AVESA) [1]; Compound II 10 g ae/ha alone", "value": 15.0, "unit": "bcd %"},
      {"measurement": "Percent (%) Visual Injury 7 DAT Obs", "setting": "tame oats (AVESA) [1]; Compound II 10 g ae/ha alone", "value": 0.0, "unit": "d %"},
      {"measurement": "Percent (%) Visual Injury 16 DAT Obs", "setting": "tame oats (AVESA) [1]; Compound II 10 g ae/ha alone", "value": 13.8, "unit": "cde %"},
      {"measurement": "Percent (%) Visual Injury 31 DAT Obs", "setting": "tame oats (AVESA) [1]; Compound II 10 g ae/ha alone", "value": 25.0, "unit": "de %"},
      {"measurement": "Percent (%) Visual Injury 70 DAT Obs", "setting": "tame oats (AVESA) [1]; Compound II 10 g ae/ha alone", "value": 33.8, "unit": "bcd %"},
      {"measurement": "Percent (%) Visual Injury 7 DAT Observed", "setting": "tame oats (AVESA) [2]; Compound II 5 g ae/ha alone", "value": 0.0, "unit": "d %"},
      {"measurement": "Percent (%) Visual Injury 14 DAT Observed", "setting": "tame oats (AVESA) [2]; Compound II 5 g ae/ha alone", "value": 2.0, "unit": "cde %"},
      {"measurement": "Percent (%) Visual Injury 28 DAT Observed", "setting": "tame oats (AVESA) [2]; Compound II 5 g ae/ha alone", "value": 3.3, "unit": "de %"},
      {"measurement": "Percent (%) Visual Injury 53 DAT Observed", "setting": "tame oats (AVESA) [2]; Compound II 5 g ae/ha alone", "value": 2.5, "unit": "fgh %"},
      {"measurement": "Percent (%) Visual Injury 7 DAT Observed", "setting": "tame oats (AVESA) [2]; Compound II 10 g ae/ha alone", "value": 1.3, "unit": "bcd %"},
      {"measurement": "Percent (%) Visual Injury 14 DAT Observed", "setting": "tame oats (AVESA) [2]; Compound II 10 g ae/ha alone", "value": 9.5, "unit": "abc %"},
      {"measurement": "Percent (%) Visual Injury 28 DAT Observed", "setting": "tame oats (AVESA) [2]; Compound II 10 g ae/ha alone", "value": 14.5, "unit": "ab %"},
      {"measurement": "Percent (%) Visual Injury 53 DAT Observed", "setting": "tame oats (AVESA) [2]; Compound II 10 g ae/ha alone", "value": 9.4, "unit": "abc %"},
      {"measurement": "Percent (%) Visual Head Deformity Obs", "setting": "spring barley (HORVS) [3]; Compound II 5 g ae/ha alone", "value": 0.0, "unit": "a %"},
      {"measurement": "Percent (%) Visual Injury 7 DAT Obs", "setting": "spring barley (HORVS) [3]; Compound II 5 g ae/ha alone", "value": 0.0, "unit": "e %"},
      {"measurement": "Percent (%) Visual Injury 14 DAT Obs", "setting": "spring barley (HORVS) [3]; Compound II 5 g ae/ha alone", "value": 0.0, "unit": "c %"},
      {"measurement": "Percent (%) Visual Injury 28 DAT Obs", "setting": "spring barley (HORVS) [3]; Compound II 5 g ae/ha alone", "value": 3.3, "unit": "de %"},
      {"measurement": "Percent (%) Visual Injury 70 DAT Obs", "setting": "spring barley (HORVS) [3]; Compound II 5 g ae/ha alone", "value": 2.5, "unit": "fgh %"},
      {"measurement": "Percent (%) Visual Head Deformity Obs", "setting": "spring barley (HORVS) [3]; Compound II 10 g ae/ha alone", "value": 1.3, "unit": "a %"},
      {"measurement": "Percent (%) Visual Injury 7 DAT Obs", "setting": "spring barley (HORVS) [3]; Compound II 10 g ae/ha alone", "value": 0.0, "unit": "e %"},
      {"measurement": "Percent (%) Visual Injury 14 DAT Obs", "setting": "spring barley (HORVS) [3]; Compound II 10 g ae/ha alone", "value": 0.0, "unit": "c %"},
      {"measurement": "Percent (%) Visual Injury 28 DAT Obs", "setting": "spring barley (HORVS) [3]; Compound II 10 g ae/ha alone", "value": 14.5, "unit": "ab %"},
      {"measurement": "Percent (%) Visual Injury 70 DAT Obs", "setting": "spring barley (HORVS) [3]; Compound II 10 g ae/ha alone", "value": 9.4, "unit": "abc %"},
      {"measurement": "Percent (%) Head Deformity 64 DAT Obs", "setting": "spring barley (HORVS) [4]; Compound II 5 g ae/ha alone", "value": 0.3, "unit": "b %"},
      {"measurement": "Percent (%) Injury Visual 15 DAT Obs", "setting": "spring barley (HORVS) [4]; Compound II 5 g ae/ha alone", "value": 0.5, "unit": "a %"},
      {"measurement": "Percent (%) Visual Injury 27 DAT Obs", "setting": "spring barley (HORVS) [4]; Compound II 5 g ae/ha alone", "value": 1.0, "unit": "c %"},
      {"measurement": "Percent (%) Visual Injury 49 DAT Obs", "setting": "spring barley (HORVS) [4]; Compound II 5 g ae/ha alone", "value": 0.0, "unit": "c %"},
      {"measurement": "Percent (%) Head Deformity 64 DAT Obs", "setting": "spring barley (HORVS) [4]; Compound II 10 g ae/ha alone", "value": 21.8, "unit": "ab %"},
      {"measurement": "Percent (%) Injury Visual 15 DAT Obs", "setting": "spring barley (HORVS) [4]; Compound II 10 g ae/ha alone", "value": 0.5, "unit": "a %"},
      {"measurement": "Percent (%) Visual Injury 27 DAT Obs", "setting": "spring barley (HORVS) [4]; Compound II 10 g ae/ha alone", "value": 0.0, "unit": "c %"},
      {"measurement": "Percent (%) Visual Injury 49 DAT Obs", "setting": "spring barley (HORVS) [4]; Compound II 10 g ae/ha alone", "value": 0.5, "unit": "bc %"}
    ]},
    {"smiles": "COc1c(Cl)ccc(-c2cc(N)c(Cl)c(C(=O)O)n2)c1F", "note": "[Compound I]", "values": [
      {"measurement": "Percent (%) Visual Incidence Head Deformity 71 DAT Obs", "setting": "spring wheat (TRZAS) [5]; Compound I 17.5 g ae/ha alone", "value": 20, "unit": "d-g %"},
      {"measurement": "Percent (%) Visual Injury 71 DAT Obs", "setting": "spring wheat (TRZAS) [5]; Compound I 17.5 g ae/ha alone", "value": 12.5, "unit": "cd %"},
      {"measurement": "Percent (%) Visual Incidence Head Deformity 71 DAT Obs", "setting": "spring wheat (TRZAS) [5]; Compound I 35 g ae/ha alone", "value": 60, "unit": "a %"},
      {"measurement": "Percent (%) Visual Injury 71 DAT Obs", "setting": "spring wheat (TRZAS) [5]; Compound I 35 g ae/ha alone", "value": 32.5, "unit": "a %"},
      {"measurement": "Percent (%) Visual Incidence Head Deformity 55 DAT Obs", "setting": "spring wheat (TRZAS) [6]; Compound I 17.5 g ae/ha alone", "value": 7.5, "unit": "cde %"},
      {"measurement": "Percent (%) Visual Injury 55 DAT Obs", "setting": "spring wheat (TRZAS) [6]; Compound I 17.5 g ae/ha alone", "value": 5.8, "unit": "de %"},
      {"measurement": "Percent (%) Visual Incidence Head Deformity 55 DAT Obs", "setting": "spring wheat (TRZAS) [6]; Compound I 35 g ae/ha alone", "value": 43.8, "unit": "ab %"},
      {"measurement": "Percent (%) Visual Injury 55 DAT Obs", "setting": "spring wheat (TRZAS) [6]; Compound I 35 g ae/ha alone", "value": 35, "unit": "a %"}
    ]},
    {"smiles": "COc1ncc(F)c2nc(S(=O)(=O)Nc3c(F)cccc3F)nn12", "note": "[Florasulam, 2′,6′,8-trifluoro-5-methoxy[1,2,4]triazolo[1,5-c]pyrimidine-2-sulfonanilide, reference compound]", "values": [
      {"measurement": "Percent (%) Visual Incidence Head Deformity 71 DAT Obs", "setting": "spring wheat (TRZAS) [5]; Florasulam 5 g ai/ha alone", "value": 0.0, "unit": "g %"},
      {"measurement": "Percent (%) Visual Injury 71 DAT Obs", "setting": "spring wheat (TRZAS) [5]; Florasulam 5 g ai/ha alone", "value": 0, "unit": "e %"},
      {"measurement": "Percent (%) Visual Incidence Head Deformity 55 DAT Obs", "setting": "spring wheat (TRZAS) [6]; Florasulam 5 g ai/ha alone", "value": 0.0, "unit": "e %"},
      {"measurement": "Percent (%) Visual Injury 55 DAT Obs", "setting": "spring wheat (TRZAS) [6]; Florasulam 5 g ai/ha alone", "value": 0.0, "unit": "e %"}
    ]}
  ]
}
